# US20110105515A1, “TARGETING THE ONCOPROTEIN NUCLEOPHOSMIN” (President and Fellows of Harvard College, priority 2007, published 2011)
# What was measured:
# Assay in all cases: cells
# SF-268 = settings: Homo sapiens, SF-268, 48 h; for CC50: read-out: LC50
# HOP-62 = settings: Homo sapiens, HOP-62, 48 h; for CC50: read-out: LC50
# SR = settings: Homo sapiens, 48 h
# MALME-3M = settings: Homo sapiens, 48 h; for CC50: read-out: LC50
# HL-60(TB) = settings: Homo sapiens, HL-60, 48 h; for CC50: read-out: LC50
# NCI-H522 = settings: Homo sapiens, NCI-H522, 48 h; for CC50: read-out: LC50
# SF-295 = settings: Homo sapiens, SF-295, 48 h; for CC50: read-out: LC50
# U251 = settings: Homo sapiens, U-251, 48 h; for CC50: read-out: LC50
# NCI-H23 = settings: Homo sapiens, NCI-H23, 48 h; for CC50: read-out: LC50
# SNB-19 = settings: Homo sapiens, SNB-19, 48 h; for CC50: read-out: LC50
# OVCAR-3 = settings: Homo sapiens, OVCAR-3, 48 h; for CC50: read-out: LC50
# UACC62 = settings: Homo sapiens, UACC-62, 48 h; for CC50: read-out: LC50
# K-562 = settings: Homo sapiens, K562, 48 h; for CC50: read-out: LC50
# DU-145 = settings: Homo sapiens, DU-145, 48 h; for CC50: read-out: LC50
# NCI-H460 = settings: Homo sapiens, NCI-H460, 48 h
# SNB-75 = settings: Homo sapiens, SNB-75, 48 h; for CC50: read-out: LC50
# HCT-15 = settings: Homo sapiens, HCT-15, 48 h; for CC50: read-out: LC50
# A549/ATCC = settings: Homo sapiens, A549, 48 h; for CC50: read-out: LC50
# MOLT-4 = settings: Homo sapiens, MOLT-4, 48 h; for CC50: read-out: LC50
# A498 = settings: Homo sapiens, A498, 48 h; for CC50: read-out: LC50
# OVCAR-8 = settings: Homo sapiens, OVCAR-8, 48 h; for CC50: read-out: LC50
# NCI/ADR-RES = settings: Homo sapiens, 48 h; for CC50: read-out: LC50
# SF-539 = settings: Homo sapiens, SF-539, 48 h; for CC50: read-out: LC50
# KM12 = settings: Homo sapiens, KM12, 48 h; for CC50: read-out: LC50
# OVCAR-4 = settings: Homo sapiens, OVCAR-4, 48 h
# M14 = settings: Homo sapiens, M14, 48 h; for CC50: read-out: LC50
# MDA-MB-435 = settings: Homo sapiens, MDA-MB-435, 48 h; for CC50: read-out: LC50
# UACC-257 = settings: Homo sapiens, UACC-257, 48 h; for CC50: read-out: LC50
# SK-MEL-28 = settings: Homo sapiens, SK-MEL-28, 48 h; for CC50: read-out: LC50
# LOX IMVI = settings: Homo sapiens, 48 h; for CC50: read-out: LC50
# TK-10 = settings: Homo sapiens, TK-10, 48 h; for CC50: read-out: LC50
# MDA-MB-468 = settings: Homo sapiens, MDA-MB-468, 48 h; for CC50: read-out: LC50
# NCI-H226 = settings: Homo sapiens, NCI-H226, 48 h; for CC50: read-out: LC50
# OVCAR-5 = settings: Homo sapiens, OVCAR-5, 48 h; for CC50: read-out: LC50
# HT29 = settings: Homo sapiens, HT-29, 48 h; for CC50: read-out: LC50
compound,measurement,setting,value
[2H]On1c2c(c3ccc4c(c31)C=CC(C)(C)O4)C(OC([2H])([2H])[2H])[C@@]13NC(=O)C4(CCCN4C1=O)CC3C2(C)C (some centres unmarked) [Deuterated Methanol Adduct],GI50,SF-268,1500 nM
same,CC50,SF-268,6060 nM
same,GI50,HOP-62,2390 nM
same,CC50,HOP-62,26700 nM
same,GI50,SR,235 nM
same,CC50,SR; read-out: LC50,9370 nM
same,GI50,MALME-3M,174 nM
same,CC50,MALME-3M,5090 nM
same,GI50,HL-60(TB),298 nM
same,CC50,HL-60(TB),9370 nM
same,GI50,NCI-H522,431 nM
same,CC50,NCI-H522,4820 nM
same,GI50,SF-295,1280 nM
same,CC50,SF-295,5810 nM
same,GI50,U251,382 nM
same,CC50,U251,3700 nM
same,GI50,NCI-H23,995 nM
same,CC50,NCI-H23,5900 nM
same,GI50,SNB-19,1110 nM
same,CC50,SNB-19,4810 nM
same,GI50,OVCAR-3,616 nM
same,CC50,OVCAR-3,4270 nM
same,GI50,UACC62,549 nM
same,CC50,UACC62,4390 nM
same,GI50,K-562,576 nM
same,CC50,K-562,> 100000 nM
same,GI50,DU-145,1750 nM
same,CC50,DU-145,5590 nM
same,GI50,NCI-H460,1800 nM
same,CC50,NCI-H460; read-out: LC50,7170 nM
same,GI50,SNB-75,265 nM
same,CC50,SNB-75,4720 nM
same,GI50,HCT-15,548 nM
same,CC50,HCT-15,4230 nM
same,GI50,A549/ATCC,1560 nM
same,CC50,A549/ATCC,5730 nM
same,GI50,MOLT-4,229 nM
same,CC50,MOLT-4,8560 nM
same,GI50,A498,1020 nM
same,CC50,A498,4820 nM
same,GI50,OVCAR-8,960 nM
same,CC50,OVCAR-8,4770 nM
same,GI50,NCI/ADR-RES,2610 nM
same,CC50,NCI/ADR-RES,39400 nM
same,GI50,SF-539,431 nM
same,CC50,SF-539,3830 nM
same,GI50,KM12,1270 nM
same,CC50,KM12,5020 nM
same,GI50,OVCAR-4,373 nM
same,CC50,OVCAR-4; read-out: LC50,4140 nM
same,GI50,M14,1060 nM
same,CC50,M14,5900 nM
same,GI50,MDA-MB-435,395 nM
same,CC50,MDA-MB-435,4720 nM
same,GI50,UACC-257,587 nM
same,CC50,UACC-257,4450 nM
same,GI50,SK-MEL-28,457 nM
same,CC50,SK-MEL-28,4370 nM
same,GI50,LOX IMVI,969 nM
same,CC50,LOX IMVI,4630 nM
same,GI50,TK-10,1070 nM
same,CC50,TK-10,5150 nM
same,GI50,MDA-MB-468,292 nM
same,CC50,MDA-MB-468,6960 nM
same,GI50,NCI-H226,391 nM
same,CC50,NCI-H226,4120 nM
same,GI50,OVCAR-5,586 nM
same,CC50,OVCAR-5,4490 nM
same,GI50,HT29,1260 nM
same,CC50,HT29,68100 nM
Cc1cc(C)cc(-c2ccc3c(c2)[N+]([O-])=C2C3=C[C@@]34NC(=O)C5(CCCN5C3=O)CC4C2(C)C)c1 (some centres unmarked) [Biphenyl Analogue],GI50,SF-268,236 nM
same,CC50,SF-268,3320 nM
same,GI50,HOP-62,1640 nM
same,CC50,HOP-62,6740 nM
same,GI50,SR,118 nM
same,GI50,MALME-3M,41.7 nM
same,CC50,MALME-3M,1500 nM
same,GI50,HL-60(TB),131 nM
same,CC50,HL-60(TB),64300 nM
same,GI50,NCI-H522,66.2 nM
same,CC50,NCI-H522,1160 nM
same,GI50,SF-295,392 nM
same,CC50,SF-295,3970 nM
same,GI50,U251,136 nM
same,CC50,U251,547 nM
same,GI50,NCI-H23,206 nM
same,CC50,NCI-H23,3580 nM
same,GI50,SNB-19,238 nM
same,CC50,SNB-19,3090 nM
same,GI50,OVCAR-3,158 nM
same,CC50,OVCAR-3,986 nM
same,GI50,UACC62,161 nM
same,CC50,UACC62,1850 nM
same,GI50,K-562,124 nM
same,CC50,K-562,> 100000 nM
same,GI50,DU-145,280 nM
same,CC50,DU-145,3660 nM
same,GI50,NCI-H460,326 nM
same,GI50,SNB-75,242 nM
same,CC50,SNB-75,3860 nM
same,GI50,HCT-15,146 nM
same,CC50,HCT-15,710 nM
same,GI50,A549/ATCC,279 nM
same,CC50,A549/ATCC,3000 nM
same,GI50,MOLT-4,159 nM
same,CC50,MOLT-4,79100 nM
same,GI50,A498,285 nM
same,CC50,A498,3830 nM
same,GI50,OVCAR-8,277 nM
same,CC50,OVCAR-8,3300 nM
same,GI50,NCI/ADR-RES,992 nM
same,CC50,NCI/ADR-RES,5180 nM
same,GI50,SF-539,186 nM
same,CC50,SF-539,1170 nM
same,GI50,KM12,257 nM
same,CC50,KM12,3910 nM
same,GI50,OVCAR-4,237 nM
same,GI50,M14,205 nM
same,CC50,M14,2180 nM
same,GI50,MDA-MB-435,166 nM
same,CC50,MDA-MB-435,1410 nM
same,GI50,UACC-257,272 nM
same,CC50,UACC-257,3740 nM
same,GI50,SK-MEL-28,252 nM
same,CC50,SK-MEL-28,3770 nM
same,GI50,LOX IMVI,139 nM
same,CC50,LOX IMVI,534 nM
same,GI50,TK-10,263 nM
same,CC50,TK-10,3380 nM
same,GI50,MDA-MB-468,160 nM
same,CC50,MDA-MB-468,3030 nM
same,GI50,NCI-H226,199 nM
same,CC50,NCI-H226,2920 nM
same,GI50,OVCAR-5,368 nM
same,CC50,OVCAR-5,4210 nM
same,GI50,HT29,284 nM
same,CC50,HT29,> 100000 nM
